Data published in patent US9187462B2, “Substituted quinazolines as serine/threonine kinase inhibitors” (Array BioPharma Inc., priority 2011, dated 2015).
Like-named read-outs stand apart in the source and are kept apart here.

Molecular target: human ERK-2 (Mitogen Activated Kinase 1) (Homo sapiens (Human), UniProt P28482)
Assay: ERK-2 Enzymatic Assay
Assay type: biochemical
Settings: 5 nM ERK-2 enzyme, 25 μM ATP, Omnia peptide S/T17, single assay or mean of multiple assays
Experimental: Compounds were tested in an enzymatic assay using human ERK-2 (Mitogen Activated Kinase 1), recombinantly expressed as an N-terminal 6-His fusion protein in E. coli and corresponding to aa 8-360. The substrate used was the fluorescent Omnia peptide S/T17 (Invitrogen of Carlsbad, Calif.; Cat. KNZ1171C). Test compounds were diluted in DMSO in 3-fold serial dilutions at 100× final concentrations. […] The assay was run at ambient temperature in a white 384-well polypropylene plate (Nunc, Inc of Naperville, Ill.; Cat. 267462) collecting data every 50 seconds for approximately 30 minutes on an Envision plate reader (PerkinElmer, Inc. of Waltham, Mass.); Excitation 340 nm/Emission 495 nm. The data collected from each well was fit to a straight line and the resulting rates were used to calculate percent of control. Percent of control was plotted against compound concentration and IC50 values were determined using a four-parameter fit. Representative data is in TABLE I and TABLE II. The reported IC50 may be from a single assay or the mean of multiple assays.

[1] = read-out: IC50 (ERK-2 Enzymatic Assay), TABLE II
[2] = read-out: IC50 (ERK-2 Enzymatic Assay), TABLE I

Sequence of human ERK-2 (Mitogen Activated Kinase 1) (P28482 8-360): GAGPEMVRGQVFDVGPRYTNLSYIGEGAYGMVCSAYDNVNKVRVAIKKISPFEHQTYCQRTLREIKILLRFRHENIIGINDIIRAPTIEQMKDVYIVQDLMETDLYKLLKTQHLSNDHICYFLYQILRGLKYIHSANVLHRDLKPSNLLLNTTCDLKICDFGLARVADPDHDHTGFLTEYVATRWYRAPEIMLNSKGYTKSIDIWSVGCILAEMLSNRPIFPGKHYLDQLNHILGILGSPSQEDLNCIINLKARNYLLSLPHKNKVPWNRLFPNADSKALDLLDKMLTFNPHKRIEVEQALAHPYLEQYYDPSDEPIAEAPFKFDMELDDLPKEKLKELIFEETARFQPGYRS

Compound	IC50 [2] [nM]	IC50 [1] [nM]
COc1ccc([C@H](NC(=O)c2cc(F)c3cnc(NC(C)C(F)(F)F)nc3c2)c2cnn(C)c2)cc1F (single isomer, unassigned) [II-1]		6.2
COc1ccc([C@H](NC(=O)c2cc(F)c3cnc(NC(C)C(F)(F)F)nc3c2)c2cnn(C)c2)cc1F (single isomer, unassigned) [II-2]		13.6
CC(C)Nc1ncc2ccc(C(=O)N[C@H](c3ccc(C(F)(F)F)c(F)c3)[C@@H]3CCCN3)cc2n1 (stereo in doubt) [I-5, 2-isopropylamino-quinazoline-7-carboxylic acid [(S)-(3-fluoro-4-trifluoromethyl-phenyl)-(R)-pyrrolidin-2-yl-methyl]-amide]	2.3	
O=C(N[C@H](c1ccc(Cl)c(F)c1)[C@@H]1CCCN1)c1ccc2cnc(NC3CCOCC3)nc2c1 (stereo in doubt) [I-23, 2-(tetrahydropyran-4-ylamino)-quinazoline-7-carboxylic acid [(S)-(4-chloro-3-fluoro-phenyl)-(R)-pyrrolidin-2-yl-methyl]-amide]	2.3	
COc1ccc([C@@H](NC(=O)c2ccc3cnc(NC4CCOCC4)nc3c2)[C@@H]2CCCN2)cc1F (stereo in doubt) [I-24, 2-(tetrahydropyran-4-ylamino)-quinazoline-7-carboxylic acid [(S)-(3-fluoro-4-methoxy-phenyl)-(R)-pyrrolidin-2-yl-methyl]-amide]	8.2	
C[C@@H](CO)Nc1ncc2ccc(C(=O)NC(c3ccc(Cl)c(F)c3)c3ccn(C)n3)cc2n1 (stereo partly drawn) [I-6, N-((4-chloro-3-fluorophenyl)(1-methyl-1H-pyrazol-3-yl)methyl)-2-((S)-1-hydroxypropan-2-ylamino)quinazoline-7-carboxamide]	5	

Further compounds by falling IC50 [2], results first:

IC50 [2] [nM]	Compound	IC50 [1] [nM]
9	COc1ccc([C@@H](NC(=O)c2cc(F)c3cnc(NC4CCOCC4)nc3c2)[C@@H]2CCCN2)cc1F (stereo in doubt) [I-25, 5-fluoro-2-(tetrahydropyran-4-ylamino)-quinazoline-7-carboxylic acid [(S)-(3-fluoro-4-methoxy-phenyl)-(R)-pyrrolidin-2-yl-methyl]-amide]	
2.4	CCn1ccc([C@@H](NC(=O)c2ccc3cnc(NC4CCOCC4)nc3c2)c2ccc(Cl)c(F)c2)n1 [I-19, 2-(tetrahydropyran-4-ylamino)-quinazoline-7-carboxylic acid [(S)-(4-chloro-3-fluoro-phenyl)-(1-ethyl-1H-pyrazol-3-yl)-methyl]-amide]	
1.8	O=C(N[C@H](c1ccc(C(F)(F)F)c(F)c1)[C@@H]1CCCN1)c1ccc2cnc(NC3CCOCC3)nc2c1 (stereo in doubt) [I-7, 2-(tetrahydropyran-4-ylamino)-quinazoline-7-carboxylic acid [(S)-(3-fluoro-4-trifluoromethyl-phenyl)-(R)-pyrrolidin-2-yl-methyl]-amide]	
